Columns and labels:
Experiment in all cases: biochemical
[1] = molecular target: T1, panel of 374 wild-type kinases (Homo sapiens, UniProt P10721); settings: read-out: % Enzyme Activity (relative to DMSO controls), c-Kit
T1 construct: purchased Reaction Biology Corporation

[2] = molecular target: T2, panel of 374 wild-type kinases (Homo sapiens, UniProt O94806); settings: read-out: % Enzyme Activity (relative to DMSO controls), kinase PKCnu/PRKD3
T2 construct: purchased Reaction Biology Corporation
T2 sequence (O94806 1-890): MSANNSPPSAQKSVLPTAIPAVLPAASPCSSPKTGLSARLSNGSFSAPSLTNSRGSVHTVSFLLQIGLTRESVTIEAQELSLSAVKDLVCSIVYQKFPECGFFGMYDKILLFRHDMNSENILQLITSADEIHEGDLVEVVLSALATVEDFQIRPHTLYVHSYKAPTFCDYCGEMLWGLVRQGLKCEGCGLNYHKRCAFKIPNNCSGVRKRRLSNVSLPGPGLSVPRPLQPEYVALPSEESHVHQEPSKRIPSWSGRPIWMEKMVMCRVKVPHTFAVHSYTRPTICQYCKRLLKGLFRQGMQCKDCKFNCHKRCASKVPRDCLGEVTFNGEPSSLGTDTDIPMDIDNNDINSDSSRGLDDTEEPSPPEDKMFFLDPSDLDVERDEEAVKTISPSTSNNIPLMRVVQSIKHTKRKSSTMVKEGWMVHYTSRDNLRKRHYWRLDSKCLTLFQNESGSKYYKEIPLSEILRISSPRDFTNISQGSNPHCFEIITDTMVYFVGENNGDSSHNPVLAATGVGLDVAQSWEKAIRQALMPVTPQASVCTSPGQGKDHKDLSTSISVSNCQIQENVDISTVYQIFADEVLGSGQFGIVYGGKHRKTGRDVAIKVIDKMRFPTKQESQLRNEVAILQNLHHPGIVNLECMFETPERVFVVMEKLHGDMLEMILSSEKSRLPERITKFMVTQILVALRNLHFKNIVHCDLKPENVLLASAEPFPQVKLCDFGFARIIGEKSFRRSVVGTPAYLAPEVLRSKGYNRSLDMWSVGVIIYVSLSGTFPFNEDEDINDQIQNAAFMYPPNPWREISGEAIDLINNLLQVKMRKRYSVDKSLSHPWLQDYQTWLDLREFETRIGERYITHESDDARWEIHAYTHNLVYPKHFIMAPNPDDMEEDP

[3] = molecular target: T3, panel of 374 wild-type kinases (Homo sapiens, UniProt Q15139); settings: read-out: % Enzyme Activity (relative to DMSO controls), kinase PKCmu/PRKD1
T3 construct: purchased Reaction Biology Corporation
T3 sequence (Q15139 1-912): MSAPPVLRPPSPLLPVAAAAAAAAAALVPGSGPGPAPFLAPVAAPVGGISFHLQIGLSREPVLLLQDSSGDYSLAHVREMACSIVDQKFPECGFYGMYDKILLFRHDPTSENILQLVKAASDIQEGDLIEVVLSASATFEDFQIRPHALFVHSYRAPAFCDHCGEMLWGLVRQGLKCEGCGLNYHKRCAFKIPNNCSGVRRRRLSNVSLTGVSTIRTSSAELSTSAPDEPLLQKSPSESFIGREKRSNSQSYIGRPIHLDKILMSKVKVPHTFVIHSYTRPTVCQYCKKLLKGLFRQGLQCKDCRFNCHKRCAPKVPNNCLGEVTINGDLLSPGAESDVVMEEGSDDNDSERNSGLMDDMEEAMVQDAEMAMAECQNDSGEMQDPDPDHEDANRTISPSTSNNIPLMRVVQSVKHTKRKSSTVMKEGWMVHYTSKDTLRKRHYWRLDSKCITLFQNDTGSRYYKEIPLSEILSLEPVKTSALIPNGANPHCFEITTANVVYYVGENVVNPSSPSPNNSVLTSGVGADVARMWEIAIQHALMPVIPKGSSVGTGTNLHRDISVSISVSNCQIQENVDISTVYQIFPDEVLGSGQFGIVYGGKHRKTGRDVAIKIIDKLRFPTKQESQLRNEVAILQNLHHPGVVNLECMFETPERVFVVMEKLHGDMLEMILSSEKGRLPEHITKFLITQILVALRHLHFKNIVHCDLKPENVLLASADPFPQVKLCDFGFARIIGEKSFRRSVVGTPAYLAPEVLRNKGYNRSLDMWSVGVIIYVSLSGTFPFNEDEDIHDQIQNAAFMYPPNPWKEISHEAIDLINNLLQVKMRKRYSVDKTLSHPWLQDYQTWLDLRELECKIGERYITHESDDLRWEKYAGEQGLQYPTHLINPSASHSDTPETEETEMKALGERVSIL

[4] = molecular target: T4, panel of 374 wild-type kinases (Homo sapiens, UniProt P12931); settings: read-out: % Enzyme Activity (relative to DMSO controls), c-Src
T4 construct: purchased Reaction Biology Corporation
T4 sequence (P12931 whole entry): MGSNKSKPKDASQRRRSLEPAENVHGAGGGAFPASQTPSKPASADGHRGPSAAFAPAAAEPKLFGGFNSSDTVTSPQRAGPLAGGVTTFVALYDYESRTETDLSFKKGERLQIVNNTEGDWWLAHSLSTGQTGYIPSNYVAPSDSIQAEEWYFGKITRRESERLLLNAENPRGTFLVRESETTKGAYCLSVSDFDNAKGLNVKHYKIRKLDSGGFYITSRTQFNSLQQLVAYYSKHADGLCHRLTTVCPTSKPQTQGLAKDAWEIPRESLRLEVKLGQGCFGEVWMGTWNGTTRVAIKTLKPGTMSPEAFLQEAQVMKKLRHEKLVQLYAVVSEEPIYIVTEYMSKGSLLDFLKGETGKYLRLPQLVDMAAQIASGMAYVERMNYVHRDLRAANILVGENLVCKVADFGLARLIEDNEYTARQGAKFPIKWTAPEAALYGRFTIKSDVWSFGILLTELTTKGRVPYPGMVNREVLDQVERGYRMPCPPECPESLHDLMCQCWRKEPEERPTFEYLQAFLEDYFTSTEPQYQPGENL

[5] = molecular target: T5, panel of 374 wild-type kinases (Homo sapiens, UniProt P54764); settings: read-out: % Enzyme Activity (relative to DMSO controls), EPHA4
T5 construct: purchased Reaction Biology Corporation
T5 sequence (P54764 20-986): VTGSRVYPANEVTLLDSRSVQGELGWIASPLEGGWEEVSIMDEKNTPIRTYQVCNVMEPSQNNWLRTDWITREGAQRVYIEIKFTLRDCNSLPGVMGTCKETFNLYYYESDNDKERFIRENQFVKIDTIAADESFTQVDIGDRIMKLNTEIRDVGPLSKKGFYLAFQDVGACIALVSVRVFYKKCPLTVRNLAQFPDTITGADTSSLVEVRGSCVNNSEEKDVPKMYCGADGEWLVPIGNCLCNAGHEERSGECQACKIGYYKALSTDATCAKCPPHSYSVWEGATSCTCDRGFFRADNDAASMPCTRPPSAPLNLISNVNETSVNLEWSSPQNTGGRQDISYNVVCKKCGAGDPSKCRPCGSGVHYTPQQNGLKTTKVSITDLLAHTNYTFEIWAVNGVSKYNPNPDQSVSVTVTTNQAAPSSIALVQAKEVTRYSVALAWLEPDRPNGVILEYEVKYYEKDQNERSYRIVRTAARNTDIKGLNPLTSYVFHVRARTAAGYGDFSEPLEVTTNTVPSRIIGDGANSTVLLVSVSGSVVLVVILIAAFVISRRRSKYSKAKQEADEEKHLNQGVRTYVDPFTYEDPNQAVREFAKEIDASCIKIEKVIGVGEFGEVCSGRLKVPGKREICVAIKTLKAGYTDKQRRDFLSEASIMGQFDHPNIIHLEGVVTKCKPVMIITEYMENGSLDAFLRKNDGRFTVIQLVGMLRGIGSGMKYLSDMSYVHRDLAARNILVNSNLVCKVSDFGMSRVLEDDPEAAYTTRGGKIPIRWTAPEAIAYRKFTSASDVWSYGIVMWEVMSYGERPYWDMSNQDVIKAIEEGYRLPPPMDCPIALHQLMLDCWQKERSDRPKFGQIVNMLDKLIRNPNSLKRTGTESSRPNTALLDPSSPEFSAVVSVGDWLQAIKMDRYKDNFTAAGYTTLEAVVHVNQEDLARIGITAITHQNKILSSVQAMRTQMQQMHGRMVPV

[6] = molecular target: T6, panel of 374 wild-type kinases (Homo sapiens, UniProt P51817); settings: read-out: % Enzyme Activity (relative to DMSO controls), kinase PRKX
T6 construct: purchased Reaction Biology Corporation
T6 sequence (P51817 1-358): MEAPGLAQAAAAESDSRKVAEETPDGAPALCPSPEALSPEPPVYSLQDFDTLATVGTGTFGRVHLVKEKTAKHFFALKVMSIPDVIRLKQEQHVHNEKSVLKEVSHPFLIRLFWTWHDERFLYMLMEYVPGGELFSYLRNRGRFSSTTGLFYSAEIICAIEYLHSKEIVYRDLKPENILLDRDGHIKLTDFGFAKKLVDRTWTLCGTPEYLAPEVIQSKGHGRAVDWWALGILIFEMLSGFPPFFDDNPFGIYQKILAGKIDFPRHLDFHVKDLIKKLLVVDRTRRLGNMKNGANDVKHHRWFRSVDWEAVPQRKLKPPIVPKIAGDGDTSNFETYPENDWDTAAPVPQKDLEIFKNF

T1 sequence (P10721 26-976): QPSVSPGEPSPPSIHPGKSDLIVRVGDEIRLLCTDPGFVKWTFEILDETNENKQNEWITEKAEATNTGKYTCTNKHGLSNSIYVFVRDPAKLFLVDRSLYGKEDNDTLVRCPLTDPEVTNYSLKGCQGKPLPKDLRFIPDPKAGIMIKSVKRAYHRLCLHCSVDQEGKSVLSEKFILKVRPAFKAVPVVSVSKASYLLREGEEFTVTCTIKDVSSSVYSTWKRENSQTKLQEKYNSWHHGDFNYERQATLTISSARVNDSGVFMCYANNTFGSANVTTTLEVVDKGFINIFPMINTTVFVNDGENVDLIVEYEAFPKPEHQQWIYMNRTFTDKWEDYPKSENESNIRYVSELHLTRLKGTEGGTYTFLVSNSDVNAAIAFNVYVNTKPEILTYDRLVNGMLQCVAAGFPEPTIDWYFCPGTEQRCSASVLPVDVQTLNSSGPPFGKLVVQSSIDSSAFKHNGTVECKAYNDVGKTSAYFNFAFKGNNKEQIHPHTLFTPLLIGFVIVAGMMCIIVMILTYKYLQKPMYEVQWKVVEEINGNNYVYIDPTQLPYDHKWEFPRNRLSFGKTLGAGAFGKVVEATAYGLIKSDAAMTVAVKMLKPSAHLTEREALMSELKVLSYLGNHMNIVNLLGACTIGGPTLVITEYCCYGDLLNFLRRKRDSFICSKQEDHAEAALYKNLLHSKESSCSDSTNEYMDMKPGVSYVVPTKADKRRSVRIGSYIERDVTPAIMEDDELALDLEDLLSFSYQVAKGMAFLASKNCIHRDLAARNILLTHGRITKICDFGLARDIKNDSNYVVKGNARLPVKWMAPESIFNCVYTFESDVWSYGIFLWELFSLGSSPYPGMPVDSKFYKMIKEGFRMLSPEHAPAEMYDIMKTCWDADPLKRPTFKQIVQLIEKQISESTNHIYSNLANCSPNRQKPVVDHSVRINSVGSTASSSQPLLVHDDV

Compound | remaining activity at 5 µM [1] | remaining activity at 5 µM [2] | remaining activity at 5 µM [3] | remaining activity at 5 µM [4] | remaining activity at 5 µM [5] | remaining activity at 5 µM [6] | remaining activity at 10 µM ([1]; 10 uM) | remaining activity at 10 µM ([2]; 10 uM) | remaining activity at 10 µM ([3]; 10 uM) | remaining activity at 10 µM ([4]; 10 uM) | remaining activity at 10 µM ([5]; 10 uM) | remaining activity at 10 µM ([6]; 10 uM)
O=C(Nc1cnn(-c2csc(C(=O)NC3COC3)c2)c1)Nc1ccccc1Cl [Compound 17, 4-(4-(3-(2-chlorophenyl)ureido)-1H-pyrazol-1-yl)-N-(oxetan-3-yl)thiophene-2-carboxamide] | 89.2% | 104% | 114% | 91.1% | 100% | 104% | – | – | – | – | – | –
Cc1sc(C(=O)NC2COC2)cc1-n1cc(NC(=O)Nc2c(F)cccc2Cl)cn1 [Compound 27, 4-(4-(3-(2-chloro-6-fluorophenyl)ureido)-1H-pyrazol-1-yl)-5-methyl-N-(oxetan-3-yl)thiophene-2-carboxamide] | – | – | – | – | – | – | 64.4% | 105% | 93.3% | 96.6% | 116% | 87.5%
O=C(Nc1cnn(-c2csc(C(=O)NC3COC3)c2)c1)Nc1c(F)cccc1Cl [Compound 25, 4-(4-(3-(2-chloro-6-fluorophenyl)ureido)-1H-pyrazol-1-yl)-N-(oxetan-3-yl)thiophene-2-carboxamide] | 94% | 105% | 90.7% | 98.4% | 89.1% | 91.5% | – | – | – | – | – | –

Reference: patent publication US20240246942A1, “KINASE INHIBITORS FOR THE TREATMENT OF NEURODEGENERATIVE DISEASES” (priority 2020, published 2024)
